Tests used:
[1] = tested on: platelets (platelet rich plasma); test: Inhibition of platelet aggregation (aggregometer, platelet rich plasma); format: cell-based; settings: for Extent of aggregation as a percentage amplitude, 1 μg/mL collagen: agonist 1 μg/mL collagen; for Extent of aggregation as a percentage amplitude, 4 μM ADP: agonist 4 μM ADP; for Extent of aggregation as a percentage amplitude, 5 μg/mL collagen: agonist 5 μg/mL collagen; for Extent of aggregation as a percentage amplitude, 12 μM TRAP: agonist 12 μM TRAP
Experimental: Platelet rich plasma (PRP) was obtained by drawing whole blood into sodium citrate tubes (3.2%) and centrifuging at 700 rpm for 10 minutes. Platelet poor plasma (PPP) was obtained by centrifuging the remainder of the sample ntil the platelets were removed (3200 rpm for 10 minutes). The PRP was adjusted to a count of 280×10^9/L using a mixture of PRP and PPP. The incubation mixture consisted of 200 μL of platelets and 25 μL of the appropriate compound (18 mM stock for a final concentration of 2 mM and 4.5 mM stock for a final concentration of 500 μM), rendering an approximate final platelet count in the incubation mixture of 250×10^9/L. After incubation (30 minutes at room temperature, the cuvettes were incubated for 3 minutes at 37° C., transferred to the mixing wells and after the baselines transmittances were measured in an aggregometer (Chrono-Log 4), 25 μL of agonist was added to give a final concentration of 4 μM ADP, 1 μg/mL collagen, 5 μg/mL collagen or 12 μM thrombin receptor activating peptide (TRAP). Final transmittances were then measured in the aggregometer (lower percent transmittance represents higher aggregation). […] Table 24-1 gives the results of the extent of aggregation for several compounds as percentage amplitude read directly from the aggregometer.

[2] = tested on: male Sprague-Dawley rats, occlusion of the left coronary artery; test: In vivo infarct size and scar mass after coronary artery ligation; set-up: species or system rat; settings: after 21 days, 10 mg/kg daily by gastric tube; for infarct size (as a percentage of left ventricle size): untreated control about 45
Experimental: (§1) Food and water were supplied ad libitum. […] Hemodynamic and histological assessments were made.
After 21 days, once the hemodynamic data were obtained, the animals were sacrificed and both average dry scar mass to left ventricle mass (n=5/group) and infarct size (n=5/group) were measured. For infarct size measurement, hearts from the untreated and PLP/compound XXIIb-treated groups were fixed in formalin and embedded in paraffin. Six evenly spaced slices were cut across the left ventricle. […] sections were cut from each slice and mounted. Sections were stained with Trichrome to discriminate between fibrous scar and noninfarcted tissue. Using the free-drawing line tool in Scion Image v4.02b, infarct internal perimeter and left ventricle internal perimeter lengths were traced per oculum for each section. Noteworthy transmural scars were taken into account. Infarct size was then expressed as the average scar perimeter/ventricle perimeter ratio. Scar mass measurements were obtained by drying excised scar tissue and left ventricles at 50-60° C. for 72 hours.

[3] = tested on: male Sprague-Dawley rats, occlusion of the left coronary artery; test: In vivo hypertrophy after coronary artery ligation; settings: rat model of Example 20
Experimental: as §1
Hypertrophy is a physiological condition of enlargement (increased mass) due to increased stress. Cardiac hypertrophy is assessed by calculating the heart to body mass ratio. Treatment with PLP or compound XXIIb results in a decrease in cardiac hypertrophy, in the rat model described in Example 20.

[4] = tested on: male Sprague-Dawley rats, occlusion of the left coronary artery; test: In vivo hemodynamic changes after coronary artery ligation; settings: day 21 after coronary ligation; 10 mg/kg daily by gastric tube

Compound | Extent of aggregation as a percentage amplitude, 1 μg/mL collagen ([1]; compound 500 μM) | Extent of aggregation as a percentage amplitude, 4 μM ADP ([1]; compound 500 μM) | Extent of aggregation as a percentage amplitude, 5 μg/mL collagen ([1]; compound 500 μM) | Extent of aggregation as a percentage amplitude, 12 μM TRAP ([1]; compound 500 μM) | Extent of aggregation as a percentage amplitude, 1 μg/mL collagen ([1]; compound 2 mM) | Extent of aggregation as a percentage amplitude, 4 μM ADP ([1]; compound 2 mM) | Extent of aggregation as a percentage amplitude, 5 μg/mL collagen ([1]; compound 2 mM) | Extent of aggregation as a percentage amplitude, 12 μM TRAP ([1]; compound 2 mM) | dry scar to left ventricle mass ratio [2] | infarct size (as a percentage of left ventricle size) [2] | cardiac hypertrophy (heart to body mass ratio) [3] | +dP/dt (rate of contraction) [4] | LVEDP in response to coronary occlusion [4] | −dP/dt (rate of relaxation) [4]
4-methylimidazole pyridoxine [XXIIb] | 79% | 59% | 82% | 91% | 32% | 46% | 77% | 84% | reductions similar in magnitude to that seen in the PLP group | reduced | decrease | recoveries | reduced rises | recoveries
Cc1ncc(CNc2ccc(C(=N)N)cc2)c(CO)c1O [Compound XXXV] | 83% | 70% | 75% | 90% | 79% | 15% | 67% | 11% | – | – | – | – | – | –
Cc1ncc(COP(=O)(O)O)c(C=O)c1O [PLP, 3-hydroxy-2-methyl-5-[(phosphonooxy)methyl]-4-pyridine-carboxaldehyde, reference compound] | 89% | 69% | 87% | 90% | 84% | 16% | 89% | 91% | reduced | reduced | decrease | recoveries | reduced rises | recoveries
